According to patent US9174966B2, “Crystalline forms of 6-(1H-imidazol-1-yl)-2-phenylquinazoline” (ROTTAPHARM S.P.A., priority 2009, dated 2015):
Several values for one entry are separate records, joined by “and”; a condition that tells them apart may be missing. Equal entries are not always repeated. Entries after “also recorded” stand apart in the source; their conditions may differ. Where two headings read alike, the source gives them in different places.

Tests used:
[1] = Hygroscopicity noted for the isolated crystalline product; assay type: physicochemical; conditions: as noted in the preparation example
[2] = Stability to mechanical stress (milling, XRPD); assay type: physicochemical; conditions: Retsch MM 200 mill, 50 Hz, 5 min.
Protocol: 6-(1H-Imidazol-1-yl)-2-phenylquinazoline, polymorph A, was subjected to milling by means of a Retsch MM 200 mill, at 50 Hz for 5 min., and the product thus obtained was analysed by XRPD.
6-(1H-Imidazol-1-yl)-2-phenylquinazoline succinate form A, was subjected to milling by means of a Retsch MM 200 mill, at 50 Hz for 5 min., and the product thus obtained was subjected to XRPD analysis.
6-(1H-Imidazol-1-yl)-2-phenylquinazoline L-tartrate dihydrate, form A, was subjected to milling by means of a Retsch MM 200 mill, at 50 Hz for 5 min., and the product thus obtained was subjected to XRPD analysis.
6-(1H-Imidazol-1-yl)-2-phenylquinazoline maleate, form A, was subjected to milling by means of a Retsch MM 200 mill, at 50 Hz for 5 min., and the product thus obtained was subjected to XRPD analysis.

[3] = Pharmacokinetics in rats, oral versus intravenous administration; assay type: in vivo; conditions: for bioavailability / clearance / half-life / Tmax: rat, blood; for bioavailability: OS 10 mg/Kg compared with IV 5 mg/kg, read-out: F (bioavailability); for half-life: read-out: T½; for Tmax: read-out: Tmax (converted)
Protocol: The samples are analysed by HPLC-MS to determine the content of 6-(1H-imidazol-1-yl)-2-phenylquinazoline, using diphenylhydramine hydrochloride as internal standard. The pharmacokinetic parameters measured are summarized hereinbelow: it is noted that, despite the fact that the polymorph under consideration is of low solubility, the bioavailability (F %) is entirely acceptable.
The pharmacokinetic parameters measured are summarized hereinbelow: it is noted that the salt under consideration has optimum bioavailability (F %). […]

[4] = Stability to moisture, DVS analysis (Differential Vapour Sorption); assay type: physicochemical; conditions: 25° C., hydration/dehydration cycle
Protocol: The sample placed on a microbalance is subjected, in a chamber of controlled humidity, at 25° C., to a cycle of hydration (increasing humidity, red line) and of dehydration (decreasing humidity, blue line).
The sample of 6-(1H-imidazol-1-yl)-2-phenylquinazoline succinate form A was subjected to DVS analysis (as described in Example 32).
The sample of 6-(1H-imidazol-1-yl)-2-phenylquinazoline L-tartrate dihydrate, form A, was subjected to DVS analysis.
The sample of 6-(1H-imidazol-1-yl)-2-phenylquinazoline maleate, form A, was subjected to DVS analysis.

[5] = Thermal stability of the crystalline form (XRPD)
[6] = Dissolution rate in water at 37° C.; assay type: physicochemical; conditions: 2 mg of product in 40 mL of water at 37° C., 500 rpm, absorbance at 260 nm
Protocol: (§1) The sample of 6-(1H-imidazol-1-yl)-2-phenylquinazoline phosphate, form A, is stirred in an aqueous solution of NaCl 0.9%, at 500 rpm, so as to obtain a suspension (70 mg in 2 mL), for 24 hours at 37° C. […] The dissolution rate is measured by adding 2 mg of product to 40 mL of water at 37° C., stirring at 500 rpm, and measuring the absorbance at 260 nm every 0.05 min; the dissolution rate is found to be 1.9×10^−4 gr/min.

[7] = Solubility in aqueous solution of NaCl 0.9% (UV absorbance at 260 nm); assay type: physicochemical; conditions: aqueous NaCl 0.9%, stirred 500 rpm, 24 hours at 37° C.; for solubility at 24 h: aqueous solution of NaCl 0.9%, 37 °C, saline or isotonic, thermodynamic from solid
Protocol: The solubility is 0.6 mg/mL. […]
The sample of 6-(1H-imidazol-1-yl)-2-phenylquinazoline phosphate, form A, is stirred in an aqueous solution of NaCl 0.9%, at 500 rpm, so as to obtain a suspension (50 mg in 2 mL), for 24 hours at 37° C.
as §1

[8] = po, 10 mg/kg, OS (oral), 10 mg/Kg
[9] = 90° C., 12 hours (or at least 12 hours), XRPD
[10] = heating at/to 90° C., time not stated, succinate

O=C(O)/C=C\C(=O)O.c1ccc(-c2ncc3cc(-n4ccnc4)ccc3n2)cc1 [maleate form A, 6-(1H-imidazol-1-yl)-2-phenylquinazoline maleate]
hygroscopicity of the isolated product [1]: non-hygroscopic | stability to milling [2]: has not undergone any changes of crystalline form, but a slight increase in the presence of amorphous product is revealed, which recrystallizes within a few hours on standing | V ([3]; IV, 5 mg/kg): 1.3 L/kg | CL ([3]; OS (oral), 10 mg/Kg): 16 mL/min/kg | V ([3]; OS (oral), 10 mg/Kg): 1.90 L/kg | bioavailability [3]: 100% | clearance ([3]; iv, 5 mg/kg): 22 mL/min/kg | half-life ([3]; iv, 5 mg/kg, IV, 5 mg/kg): 45.6 min | Tmax [3, 8]: 60 min | half-life [3, 8]: 45 min | hygroscopicity (DVS) ([4]; maleate): not hygroscopic in the range 0-85% RH; also recorded: not particularly hygroscopic even at values of greater than 85% RH | thermal stability of crystalline form ([5]; 40° C., 70% RH, 7 days, XRPD): stable | thermal stability of crystalline form [5, 9]: stable | dissolution rate [6]: 1.45×10^−3 gr/min | solubility at 24 h [7]: 7900 µg/mL

O=C(O)CCC(=O)O.c1ccc(-c2ncc3cc(-n4ccnc4)ccc3n2)cc1 [succinate salt form B, 6-(1H-imidazol-1-yl)-2-phenylquinazoline succinate]
hygroscopicity of the isolated product ([1]; succinate): non-hygroscopic | thermal stability of crystalline form [5, 10]: converted into form A

O.O=C(O)C(O)C(O)C(=O)O.c1ccc(-c2ncc3cc(-n4ccnc4)ccc3n2)cc1 [tartrate salt form C, 6-(1H-imidazol-1-yl)-2-phenylquinazoline (L)-tartrate monohydrate]
thermal stability of crystalline form ([5]; 40° C., RH 85%, 7 days, XRPD): stable | thermal stability of crystalline form [5, 9]: stable

c1ccc(-c2ncc3cc(-n4ccnc4)ccc3n2)cc1 [form D, 6-(1H-imidazol-1-yl)-2-phenylquinazoline]
thermal stability of crystalline form ([5]; 40° C., RH 85%, 7 days, XRPD): stable | thermal stability of crystalline form ([5]; 90° C., 3 hours, XRPD): stable

O=C(O)CCC(=O)O.c1ccc(-c2ncc3cc(-n4ccnc4)ccc3n2)cc1 [succinate form A, 6-(1H-imidazol-1-yl)-2-phenylquinazoline succinate]
hygroscopicity of the isolated product ([1]; succinate): non-hygroscopic | stability to milling [2]: has not undergone any changes of crystalline form and no presence of amorphous product is revealed | V ([3]; IV, 5 mg/kg): 1.1 L/kg | CL ([3]; OS (oral), 10 mg/Kg): 19 mL/min/kg | V ([3]; OS (oral), 10 mg/Kg): 3.74 L/kg | bioavailability [3]: 65% | clearance ([3]; iv, 5 mg/kg): 18 mL/min/kg | half-life ([3]; iv, 5 mg/kg, IV, 5 mg/kg): 48.9 min | Tmax [3, 8]: 60 min | half-life [3, 8]: 48.6 min | hygroscopicity (DVS) ([4]; succinate): not entirely hygroscopic; also recorded: only at about 90% RH is there a significant minimum absorption of water | thermal stability of crystalline form ([5]; 40° C., RH 85%, 7 days, XRPD): stable | thermal stability of crystalline form [5, 9]: stable | dissolution rate [6]: 3.53×10^−5 gr/min | solubility at 24 h [7]: 600 µg/mL

c1ccc(-c2ncc3cc(-n4ccnc4)ccc3n2)cc1 [form B, 6-(1H-imidazol-1-yl)-2-phenylquinazoline monohydrate]
thermal stability of crystalline form ([5]; 40° C., RH 85%, 7 days, XRPD, monohydrate): appearance of the signals of form E | behaviour in variable temperature experiment (VT-XRPD) ([5]; heated to between 40° C. and 180° C.): conversion into form E

6-(1H-imidazol-1-yl)-2-phenylquinazoline maleate hemihydrate [maleate salt form B]
thermal stability of crystalline form ([5]; 40° C., RH 85%, 7 days, XRPD): partially converted into form A | thermal stability of crystalline form [5, 9]: converted into form A

O=C(O)C(O)C(O)C(=O)O.c1ccc(-c2ncc3cc(-n4ccnc4)ccc3n2)cc1 [tartrate form A, 6-(1H-imidazol-1-yl)-2-phenylquinazoline (L) tartrate dihydrate]
hygroscopicity of the isolated product [1]: non-hygroscopic | stability to milling [2]: has not undergone any changes of crystalline form, and a slight increase in the presence of amorphous product is revealed | V ([3]; IV, 5 mg/kg): 1.4 L/kg | CL ([3]; OS (oral), 10 mg/Kg): 17 mL/min/kg | V ([3]; OS (oral), 10 mg/Kg): 5.47 L/kg | bioavailability [3]: 81% | clearance ([3]; iv, 5 mg/kg): 23 mL/min/kg | half-life ([3]; iv, 5 mg/kg, IV, 5 mg/kg): 47.7 min | Tmax [3, 8]: 100 min | half-life [3, 8]: 47.2 min | hygroscopicity (DVS) ([4]; tartrate dihydrate): not hygroscopic in the range 25-70% RH; also recorded: point of inflection at 75% RH; also recorded: highly hygroscopic only at values of greater than 80% RH | thermal stability of crystalline form ([5]; 40° C., 70% RH, 7 days, XRPD): stable | thermal stability of crystalline form ([5]; 90° C., 12 hours (or at least 12 hours), XRPD, tartrate dihydrate): gives rise to the amorphous form | dissolution rate [6]: 1.04×10^−3 gr/min | solubility at 24 h [7]: 2500 µg/mL

O=C(O)CCC(=O)O.c1ccc(-c2ncc3cc(-n4ccnc4)ccc3n2)cc1 [succinate salt form C, 6-(1H-imidazol-1-yl)-2-phenylquinazoline succinate]
hygroscopicity of the isolated product ([1]; succinate): not hygroscopic | thermal stability of crystalline form [5, 10]: stable

O=C(O)/C=C/C(=O)O.c1ccc(-c2ncc3cc(-n4ccnc4)ccc3n2)cc1 [fumarate form A, 6-(1H-imidazol-1-yl)-2-phenylquinazoline fumarate]
hygroscopicity of the isolated product [1]: non-hygroscopic | thermal stability of crystalline form ([5]; 40° C., RH 85%, 7 days, XRPD): stable | dissolution rate [6]: 2.67×10^−5 gr/min | solubility at 24 h [7]: 1200 µg/mL

O=P(O)(O)O.c1ccc(-c2ncc3cc(-n4ccnc4)ccc3n2)cc1 [phosphate, form A, 6-(1H-imidazol-1-yl)-2-phenylquinazoline phosphate]
dissolution rate ([6]; phosphate): 1.73×10^−4 gr/min and 1.9×10^−4 gr/min | solubility ([7]; phosphate): 3600 µg/mL | solubility at 24 h [7]: 6200 µg/mL

O.O.O.O.O=C(O)C(O)C(O)C(=O)O.c1ccc(-c2ncc3cc(-n4ccnc4)ccc3n2)cc1 [tartrate salt form B, 6-(1H-imidazol-1-yl)-2-phenylquinazoline (L)-tartrate tetrahydrate]
thermal stability of crystalline form ([5]; 40° C., RH 85%, 7 days, XRPD): stable | thermal stability of crystalline form [5, 9]: gives rise to the amorphous form

O=C(O)C(O)C(O)C(=O)O.c1ccc(-c2ncc3cc(-n4ccnc4)ccc3n2)cc1 [tartrate salt form D, 6-(1H-imidazol-1-yl)-2-phenylquinazoline (L)-tartrate]
thermal stability of crystalline form ([5]; 40° C., RH 85%, 7 days, XRPD): gives an XRPD corresponding to form A | thermal stability of crystalline form [5, 9]: an amorphous product

Cl.c1ccc(-c2ncc3cc(-n4ccnc4)ccc3n2)cc1 [hydrochloride salt form B, 6-(1H-imidazol-1-yl)-2-phenylquinazoline hydrochloride]
hygroscopicity of the isolated product [1]: hygroscopic

c1ccc(-c2ncc3cc(-n4ccnc4)ccc3n2)cc1 [form C, 6-(1H-imidazol-1-yl)-2-phenylquinazoline monohydrate]
thermal stability of crystalline form ([5]; 40° C., RH 85%, 5 days (at least 5 days for polymorph A), XRPD): stable | thermal stability of crystalline form ([5]; 90° C., 3 hours, XRPD, monohydrate): complete conversion into form E
